Results on 19 molecules are retold here after ChEMBL document CHEMBL3864166, “4-Carbonyl-2,6-dibenzylidenecyclohexanone derivatives as small molecule inhibitors of STAT3 signaling pathway” (Bioorg Med Chem, 2016).

In general, IC50 refers to the concentration at which inhibition is half-maximal. The inhibition is the drop in the measured response relative to a control, in per cent. As usually defined, the Kd is the equilibrium constant for the complex coming apart. Higher therefore signals a looser complex.

Calls of active or inactive are those of the source. No cut-off for these calls is given here.

Data set [1] in a line: Antiproliferative activity against human MDA-MB-231 cells after 48 hrs by MTT assay. The data set is classed as functional, cell-based. Particulars: MDA-MB-231, 48 h. (Tetrazolium dyes change colour on reduction, which living cells bring about.)
Data set [2] can be described thus: Antiproliferative activity against human A549 cells after 48 hrs by MTT assay. Particulars: A549, 48 h. In kind it is functional, cell-based.
A short description of data set [3]: Antiproliferative activity against human DU145 cells after 48 hrs by MTT assay. The data set is classed as functional, cell-based. To be noted: DU-145, 48 h.
The test system of another data set is DU-145. Nature of the data set: Selectivity ratio of IC50 for human DU145 cells to IC50 for human MDA-MB-231 cells. The data set is classed as functional.
The nature of data set [4]: Cytotoxicity against human HL-7702 cells assessed as reduction in cell viability after 48 hrs by MTT assay. The data set is classed as toxicity, cell-based. Particulars: l02, 48 h.
The target in data set [5] is T1, Signal transducer and activator of transcription 3 (Homo sapiens, UniProt P40763). Kind of data set: Inhibition of STAT3 phosphorylation at tyr705 in human MDA-MB-231 cells after 24 hrs by Western blot analysisis. In kind it is cell-based.
Data set [6] addresses T1, Signal transducer and activator of transcription 3. Kind of data set: Inhibition of STAT3 phosphorylation at tyr705 in human A549 cells after 24 hrs by Western blot analysisis. In kind it is cell-based. On the technique in general: Immunoblotting shows a protein as a band on a membrane.
Data set [7] has the same target. Nature of the data set: Inhibition of STAT3 phosphorylation at tyr705 in human MDA-MB-231 cells at 4 uM after 24 hrs by Western blot analysisis. In kind it is cell-based.
Data set [8] has the same target. Kind of data set: Inhibition of STAT3 phosphorylation at tyr705 in human A549 cells at 4 uM after 24 hrs by Western blot analysisis. The data set is classed as cell-based.
Data set [9] can be described thus: Effect on total STAT3 protein expression in human MDA-MB-231 cells at 1 to 4 uM after 24 hrs by Western blot analysis. Particulars: mda-mb-231, 24 h. The data set is classed as ADME, cell-based.
Data set [10] in a line: Effect on total STAT3 protein expression in human A549 cells at 1 to 4 uM after 24 hrs by Western blot analysis. In kind it is ADME, cell-based. Particulars: a549, 24 h.
Data set [11] has as its target T1, Signal transducer and activator of transcription 3. Kind of data set: Inhibition of IL6-stimulated STAT3 phosphorylation at Tyr-705 residue in human MDA-MB-231 cells at 1 to 4 uM preincubated for 2 hrs followed by IL6 stimulation measured after 30 mins by Western blot analysisis. The data set is classed as cell-based.
A further data set has as its system MDA-MB-231. Kind of data set: Induction of apoptosis in human MDA-MB-231 cells assessed increase in cleaved PARP levels at 1 to 4 uM after 24 hrs by Western blot analysisis. The data set is classed as functional, cell-based.
The test system of data set [12] is A549. Nature of the data set: Induction of apoptosis in human A549 cells assessed increase in cleaved PARP levels up to 4 uM after 24 hrs by Western blot analysisis. The data set is classed as functional, cell-based.
The target in data set [13] is T1, Signal transducer and activator of transcription 3. Nature of the data set: Binding affinity to STAT3 (unknown origin) expressed in Escherichia coli expression system by SPR assay. A general note: In SPR one partner is held on a chip, and binding of the other changes the refractive index at the surface.
Data set [14] in a line: Downregulation of IL6-stimulated STAT3 expression in human MDA-MB-231 cells at 1 to 4 uM preincubated for 2 hrs followed by IL6 stimulation measured after 30 mins by Western blot analysisis. The data set is classed as functional, cell-based.
In data set [15] the test system is A549. Kind of data set: Selectivity ratio of IC50 for human DU145 cells to IC50 for human A549 cells. The data set is classed as functional.

T1 sequence (P40763 whole entry): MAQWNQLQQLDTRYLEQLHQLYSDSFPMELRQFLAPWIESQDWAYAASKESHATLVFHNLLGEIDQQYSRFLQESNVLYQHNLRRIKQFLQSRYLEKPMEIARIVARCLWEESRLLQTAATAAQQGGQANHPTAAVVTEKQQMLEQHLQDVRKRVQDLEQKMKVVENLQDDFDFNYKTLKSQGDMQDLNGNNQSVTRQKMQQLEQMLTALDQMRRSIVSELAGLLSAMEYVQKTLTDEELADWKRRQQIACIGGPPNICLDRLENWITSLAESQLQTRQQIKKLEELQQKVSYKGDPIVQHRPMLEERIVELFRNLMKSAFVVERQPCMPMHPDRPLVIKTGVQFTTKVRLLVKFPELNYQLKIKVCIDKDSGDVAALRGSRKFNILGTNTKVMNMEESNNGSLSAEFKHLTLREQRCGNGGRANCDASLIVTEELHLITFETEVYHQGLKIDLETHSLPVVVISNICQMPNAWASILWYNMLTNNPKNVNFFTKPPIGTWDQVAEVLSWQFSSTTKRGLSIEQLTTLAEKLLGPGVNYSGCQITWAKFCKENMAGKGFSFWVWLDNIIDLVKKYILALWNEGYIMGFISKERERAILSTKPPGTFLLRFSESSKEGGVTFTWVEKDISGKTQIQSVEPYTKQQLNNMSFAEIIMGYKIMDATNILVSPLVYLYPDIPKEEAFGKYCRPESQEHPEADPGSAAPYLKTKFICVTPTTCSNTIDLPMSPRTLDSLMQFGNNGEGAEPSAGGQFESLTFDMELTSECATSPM

In the case of `COc1ccc(/C=C2\CC(C(=O)Nc3ccc(OC)cc3)C/C(=C\c3ccc(OC)cc3)C2=O)cc1` (centres undefined), the IC50 in data set [1], in data set [2] and in data set [3] was over 20 µM throughout.

For `CN1CCN(c2cccc(NC(=O)C3C/C(=C\c4ccc(F)cc4)C(=O)/C(=C/c4ccc(F)cc4)C3)c2)CC1` (centres undefined), the IC50 in [1] was determined as 0.78 µM; in data set [2], 3.84 µM; in data set [3], 5.96 µM. Moreover, the “Ratio IC50” value in the data set with DU-145 came out at 7.6. The Activity result in data set [4] is on record as “Non-Toxic”.

Turning to `CCN(CC)CCNC(=O)C1C/C(=C\c2ccc(F)cc2)C(=O)/C(=C/c2ccc(F)cc2)C1` (centres undefined), the figures for the 50% inhibitory concentration (IC50) in data set [1], in data set [2] and in data set [3] were 0.64 µM, 1.88 µM and 1.63 µM, respectively. Also, in the data set with DU-145, the “Ratio IC50” value came to 2.9. Also, the Activity result in data set [4], in data set [9] and in data set [10] was “Non-Toxic” throughout. The inhibition entry was “Dose-dependent effect” in [5], “Dose-dependent effect” in data set [6], 100% in [7] and 100% in [8]. Further, the inhibition entry in data set [11] is “Active”. Besides, the outcome (in the data set on MDA-MB-231; with A549 [12]; in data set [14]) was Active. Also, the Kd in data set [13] stood at 7.93 µM.

As to `COc1cc(/C=C/C(=O)CC(=O)/C=C/c2ccc(O)c(OC)c2)ccc1O` [CURCUMIN], the IC50 in [1] was found to be 24.5 µM; in data set [2] it was 15.1 µM; in [3] it was 44.7 µM. Besides, the “Ratio IC50” value in the data set with A549 [15] is 3.

Take `CCN(CC)CCNC(=O)C1C/C(=C\c2ccccc2)C(=O)/C(=C/c2ccccc2)C1` (centres undefined): the half-inhibitory concentration (IC50) in [1] was found to be 0.63 µM; in [2], 3.93 µM; in [3] it was 4.41 µM. Further, in the data set on DU-145, the “Ratio IC50” value is reported as 7.

As for `CN1CCN(c2ccc(NC(=O)C3C/C(=C\c4ccc(F)cc4)C(=O)/C(=C/c4ccc(F)cc4)C3)cc2)CC1` (centres undefined), the IC50 in [1] was found to be 0.59 µM; in [2] it was 3.17 µM; in data set [3], 2.63 µM. Further, the “Ratio IC50” value in the data set on DU-145 stood at 5.4. For the same molecule, the Activity result in data set [4] is “Non-Toxic”.

Regarding `COc1ccc(/C=C2\CC(C(=O)Nc3ccccc3)C/C(=C\c3ccc(OC)cc3)C2=O)cc1` (centres undefined), the IC50 in data set [1], in [2] and in [3] was over 20 µM in each case.

On to `COc1ccc(/C=C2\CC(C(=O)Nc3ccc(N4CCN(C)CC4)cc3)C/C(=C\c3ccc(OC)cc3)C2=O)cc1` (centres undefined), for which the IC50 in data set [1] amounted to 3.34 µM; in data set [2], 3.09 µM; in data set [3] it was 7.03 µM. Also, in the data set with A549 [15], the “Ratio IC50” value was found to be 2.1.

As to `CCN(CC)CCNC(=O)C1C/C(=C\c2ccc(OC)c(O)c2)C(=O)/C(=C/c2ccc(OC)c(O)c2)C1` (centres undefined), the values for the half-inhibitory concentration (IC50) in data set [1], in data set [2] and in data set [3] were 6.87 µM, 8.13 µM and over 20 µM, respectively.

As to `COc1ccc(/C=C2\CC(C(=O)Nc3ccc(N4CCOCC4)cc3)C/C(=C\c3ccc(OC)cc3)C2=O)cc1` (centres undefined), the IC50 in data set [1] was determined as 4.21 µM; in data set [2], 2.76 µM; in data set [3], 15.6 µM. In addition, the “Ratio IC50” value in the data set on A549 [15] is 5.7.

Turning to `COc1ccc(/C=C2\CC(C(=O)Nc3cccc(N4CCN(C)CC4)c3)C/C(=C\c3ccc(OC)cc3)C2=O)cc1` (centres undefined), the half-maximal inhibitory concentration (IC50) in data set [1] turned out to be 3.39 µM; in [2] it was 3.69 µM; in data set [3], 10.1 µM. Besides, the “Ratio IC50” value in the data set with DU-145 came to 3.

Take `COc1ccc(/C=C2\CC(C(=O)NCCO)C/C(=C\c3ccc(OC)cc3)C2=O)cc1` (centres undefined): the IC50 in data set [1] was 11.7 µM; in data set [2], 13.7 µM; in data set [3], over 20 µM.

`COc1ccc(/C=C2\CC(C(=O)N3CCN(C)CC3)C/C(=C\c3ccc(OC)cc3)C2=O)cc1` (centres undefined): the IC50 in data set [1] is 5.46 µM; in data set [2], 9.07 µM; in data set [3], 17.6 µM. In addition, the “Ratio IC50” value in the data set with DU-145 came to 3.2.

Turning to `CCN(CC)CCNC(=O)C1C/C(=C\c2ccc(OC)cc2)C(=O)/C(=C/c2ccc(OC)cc2)C1` (centres undefined), the IC50 in data set [1] worked out at 3.78 µM; in data set [2], 6.47 µM; in data set [3], 6.89 µM. For the same molecule, the “Ratio IC50” value with DU-145 is 1.8.

In the case of `COc1ccc(/C=C2\CC(C(=O)N3CCN(C(C)=O)CC3)C/C(=C\c3ccc(OC)cc3)C2=O)cc1` (centres undefined), the figures for the IC50 in data set [1], in data set [2] and in data set [3] were 5.84 µM, 8.02 µM and 17.4 µM, respectively. Further, the “Ratio IC50” value in the data set on DU-145 stood at 3.

Turning to `COc1ccc(/C=C2\CC(C(=O)Nc3cccc(N4CCN(C)CC4)c3)C/C(=C\c3ccc(OC)c(O)c3)C2=O)cc1O` (centres undefined), the results for the IC50 in [1], in data set [2] and in data set [3] were 1.6 µM, 7.53 µM and 8.29 µM, respectively. Moreover, the “Ratio IC50” value in the data set on DU-145 stood at 5.2.

As to `CN1CCN(c2cccc(NC(=O)C3C/C(=C\c4ccccc4)C(=O)/C(=C/c4ccccc4)C3)c2)CC1` (centres undefined), the IC50 in [1] was found to be 1.79 µM; in [2], 5.96 µM; in [3] it was 8.69 µM. Moreover, in the data set on DU-145, the “Ratio IC50” value was found to be 4.9.

Consider `COc1ccc(/C=C2\CC(C(=O)N3CCOCC3)C/C(=C\c3ccc(OC)cc3)C2=O)cc1` (centres undefined), for which the concentration for half-maximal inhibition (IC50) in [1] is 11.2 µM; in data set [2], 16.2 µM; in data set [3] it was over 20 µM.

For the molecule `COc1ccc(/C=C2\CC(C(=O)NC(C)C)C/C(=C\c3ccc(OC)cc3)C2=O)cc1` (centres undefined), the IC50 is over 20 µM in data set [1], 15.1 µM in [2] and over 20 µM in data set [3].
